Source: ChEMBL document CHEMBL3085700 (J Med Chem, 2013)
Activity calls are given as the source filed them. No cut-off for these calls is given here.

What was measured:
[1] = biological target: T1, Monoacylglycerol lipase ABHD6 (Mus musculus) (UniProt Q8R2Y0); assay: Inhibition of TAMRA-FP-labeled ABHD6 in mouse brain membrane at 10 uM after 1 hr by fluorescent gel scanning assay; type: cell membranes
T1 sequence (whole entry): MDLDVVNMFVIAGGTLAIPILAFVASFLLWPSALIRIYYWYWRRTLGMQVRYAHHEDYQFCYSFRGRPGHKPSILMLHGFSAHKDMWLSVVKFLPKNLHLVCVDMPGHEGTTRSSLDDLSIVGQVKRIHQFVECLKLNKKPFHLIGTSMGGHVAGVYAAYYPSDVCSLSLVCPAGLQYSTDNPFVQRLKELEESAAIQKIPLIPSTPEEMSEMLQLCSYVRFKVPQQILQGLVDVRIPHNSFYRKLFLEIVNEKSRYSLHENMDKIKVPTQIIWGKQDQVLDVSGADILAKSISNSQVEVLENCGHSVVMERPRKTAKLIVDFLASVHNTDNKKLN

[2] = biological target: T2, Lysophosphatidylserine lipase ABHD12 (Homo sapiens) (UniProt Q8N2K0); assay: Inhibition of human ABHD12 overexpressed in HEK293 cells assessed as 2-AG hydrolysis at 1 uM by fluorescent glycerol assay; type: cell-based
T2 sequence (whole entry): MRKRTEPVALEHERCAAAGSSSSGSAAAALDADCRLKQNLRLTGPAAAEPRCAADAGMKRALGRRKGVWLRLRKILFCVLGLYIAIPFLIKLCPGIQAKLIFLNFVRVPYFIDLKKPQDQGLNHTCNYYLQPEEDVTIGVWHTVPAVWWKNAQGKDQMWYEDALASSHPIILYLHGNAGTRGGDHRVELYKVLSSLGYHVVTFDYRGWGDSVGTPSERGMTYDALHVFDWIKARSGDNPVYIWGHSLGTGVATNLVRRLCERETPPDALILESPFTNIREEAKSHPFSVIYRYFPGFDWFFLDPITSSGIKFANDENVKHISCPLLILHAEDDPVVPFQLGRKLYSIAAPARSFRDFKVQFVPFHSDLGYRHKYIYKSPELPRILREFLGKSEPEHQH

[3] = biological target: T3, Prostaglandin G/H synthase 2 (Homo sapiens) (UniProt P35354); assay: Inhibition of human recombinant COX-2 assessed as inhibition of 2-AG cyclooxygenation at 100 uM measured within 10 to 50 secs relative to control
T3 sequence (whole entry): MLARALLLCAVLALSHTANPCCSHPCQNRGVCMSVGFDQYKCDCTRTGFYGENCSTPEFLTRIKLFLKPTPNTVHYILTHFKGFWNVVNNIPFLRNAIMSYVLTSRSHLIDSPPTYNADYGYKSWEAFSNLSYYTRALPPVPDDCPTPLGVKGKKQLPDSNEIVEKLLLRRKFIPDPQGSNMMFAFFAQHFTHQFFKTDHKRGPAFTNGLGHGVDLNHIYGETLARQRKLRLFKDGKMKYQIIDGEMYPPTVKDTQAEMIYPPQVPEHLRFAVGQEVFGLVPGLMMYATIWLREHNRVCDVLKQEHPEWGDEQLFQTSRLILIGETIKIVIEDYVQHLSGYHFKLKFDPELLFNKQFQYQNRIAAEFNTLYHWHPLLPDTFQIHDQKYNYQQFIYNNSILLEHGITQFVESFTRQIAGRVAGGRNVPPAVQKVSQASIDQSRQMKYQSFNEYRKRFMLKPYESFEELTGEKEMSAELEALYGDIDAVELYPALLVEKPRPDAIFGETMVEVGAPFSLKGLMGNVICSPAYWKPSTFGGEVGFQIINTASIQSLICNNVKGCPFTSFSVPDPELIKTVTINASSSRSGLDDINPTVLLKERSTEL

[4] = biological target: T3, Prostaglandin G/H synthase 2 (Homo sapiens); assay: Inhibition of human recombinant COX-2 assessed as inhibition of 2-AG cyclooxygenation at 30 uM measured within 10 to 50 secs relative to control
[5] = biological target: T4, Fatty-acid amide hydrolase 1 (Homo sapiens) (UniProt O00519); assay: Inhibition of human recombinant FAAH overexpressed in African green monkey COS7 cells using [3H]-anandamide as substrate at 3 to 30 uM preincubated for 10 to 60 mins by liquid scintillation counting analysis; type: cell-based; conditions: COS-7
T4 sequence (whole entry): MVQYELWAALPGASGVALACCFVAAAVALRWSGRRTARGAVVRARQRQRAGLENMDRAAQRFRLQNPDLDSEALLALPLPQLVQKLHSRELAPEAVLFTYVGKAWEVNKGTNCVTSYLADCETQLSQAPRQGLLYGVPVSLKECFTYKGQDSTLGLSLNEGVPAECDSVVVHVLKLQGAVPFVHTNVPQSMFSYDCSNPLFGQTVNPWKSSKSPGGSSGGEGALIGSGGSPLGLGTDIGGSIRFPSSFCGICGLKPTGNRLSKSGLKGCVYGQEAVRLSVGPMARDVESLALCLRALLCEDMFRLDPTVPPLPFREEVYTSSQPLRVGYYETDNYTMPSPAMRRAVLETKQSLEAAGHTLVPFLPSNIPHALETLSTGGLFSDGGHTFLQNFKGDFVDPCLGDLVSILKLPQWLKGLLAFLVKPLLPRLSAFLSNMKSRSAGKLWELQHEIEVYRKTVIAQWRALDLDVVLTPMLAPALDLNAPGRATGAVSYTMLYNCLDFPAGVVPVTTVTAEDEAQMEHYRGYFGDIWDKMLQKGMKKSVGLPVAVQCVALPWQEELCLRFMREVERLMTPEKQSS

[6] = biological target: Cannabinoid receptor 1 (Rattus norvegicus) (UniProt P20272); assay: Antagonist activity at CB1 receptor in rat cerebellar membranes assessed as HU210-evoked response up to 10 uM incubated for 10 mins prior to testing by [35S]GTPgammaS binding assay; type: functional, cell membranes; conditions: Cerebellum, Membrane
Cannabinoid receptor 1 (Rattus norvegicus), sequence (P20272 whole entry): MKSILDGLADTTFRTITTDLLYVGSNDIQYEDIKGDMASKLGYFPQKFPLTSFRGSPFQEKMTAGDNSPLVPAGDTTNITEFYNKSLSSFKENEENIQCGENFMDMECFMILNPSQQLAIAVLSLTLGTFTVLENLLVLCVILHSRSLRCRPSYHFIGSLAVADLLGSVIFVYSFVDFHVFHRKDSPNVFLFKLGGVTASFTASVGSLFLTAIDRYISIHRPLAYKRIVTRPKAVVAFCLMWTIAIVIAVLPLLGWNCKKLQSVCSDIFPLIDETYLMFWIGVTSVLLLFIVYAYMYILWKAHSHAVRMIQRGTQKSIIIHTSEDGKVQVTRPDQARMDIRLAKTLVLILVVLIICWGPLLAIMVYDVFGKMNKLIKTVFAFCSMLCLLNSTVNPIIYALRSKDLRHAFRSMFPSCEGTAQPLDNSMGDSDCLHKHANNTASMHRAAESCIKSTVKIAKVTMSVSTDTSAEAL

[7] = biological target: T5, Lysophosphatidylserine lipase ABHD12 (Mus musculus) (UniProt Q99LR1); assay: Inhibition of TAMRA-FP-labeled ABHD12 in mouse brain membrane at 10 uM after 1 hr by fluorescent gel scanning assay; type: cell membranes
T5 sequence (whole entry): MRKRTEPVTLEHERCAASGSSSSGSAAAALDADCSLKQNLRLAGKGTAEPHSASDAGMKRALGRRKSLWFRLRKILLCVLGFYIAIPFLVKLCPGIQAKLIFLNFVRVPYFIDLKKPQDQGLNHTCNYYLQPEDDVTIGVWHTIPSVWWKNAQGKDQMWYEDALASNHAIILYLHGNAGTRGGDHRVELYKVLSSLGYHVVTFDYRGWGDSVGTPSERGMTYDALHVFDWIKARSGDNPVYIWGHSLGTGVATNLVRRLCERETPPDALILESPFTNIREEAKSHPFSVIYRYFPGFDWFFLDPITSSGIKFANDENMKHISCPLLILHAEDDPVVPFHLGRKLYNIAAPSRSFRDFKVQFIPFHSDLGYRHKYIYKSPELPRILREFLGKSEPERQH

[8] = biological target: Cannabinoid receptor 1 (Rattus norvegicus) (UniProt P20272); assay: Agonist activity at CB1 receptor in rat cerebellar membranes up to 10 uM incubated for 10 mins prior to testing by [35S]GTPgammaS binding assay; type: functional, cell membranes; conditions: Cerebellum, Membrane

SMILES: COc1nn([C@@H](C)c2ccc(CC(C)C)cc2)c(=O)o1
- inhibition [1]: inactive
- inhibition [2]: inactive
- inhibition [3]: 30%
- inhibition [4]: 20%
- inhibition [5]: Active
- Activity [6]: inactive
- inhibition [7]: inactive
- Activity [8]: inactive
